The source of these data is US10280170B2, “Substituted 4,5,6,7-tetrahydro-pyrazolo[1,5-a]pyrazine derivatives and 5,6,7,8-tetrahydro-4H-pyrazolo[1,5-a][1,4]diazepine derivatives as Ros1 inhibitors” (Janssen Pharmaceutica NV, priority 2014, dated 2019).

Each structure is given as a SMILES string. Where two headings read alike, the source gives them in different places.

One series deals with T1, Ros1 enzyme (Homo sapiens, UniProt P08922).
T1 construct: 0.5 μg/ml Ros1 enzyme
Nature of the series: Ros1 enzymatic assay. As to conditions: Ros1 enzymatic assay; read-out: ROS1 pIC50 (converted). The series is classed as biochemical. Summed up:
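Ros1 kinase, IRS-Tide peptide, 20 μM ATP + [33P]ATP (substrate-mix concentrations); Tris-HCl pH7.5, 10 mM MgCl2, 1 mM EGTA, 0.01% Tween-20; 120 min RT; EDTA/excess ATP stop, streptavidin beads 15 min, LEADseeker imaging.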

Series [1] concerns the target T2, Ba/F3 cells containing Ros1 wild-type protein (Homo sapiens, UniProt P08922, cells depend on it, form not given).
T2 construct: The background only speaks of 'a number of different unrelated proteins' and names SLC34A2-ROS1 for HCC78 cells
Kind of series: Ba/F3-Ros1 cell proliferation assay, wild-type Ros1. The series is classed as cell-based, murine. Conditions: without IL-3. Summed up:
(§1)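 Compounds dispensed from 100% DMSO; Ba/F3 cells carrying one of three Ros1 forms added at 20000/well in RPMI-1640 with 10% FBS. Plates kept 24 h at 37 °C under 5% CO2. Alamar Blue added, 4 h further incubation, fluorescence measured at 540/590 nm.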

Series [2] addresses Ba/F3 cells containing Ros1 with a mutation at the gatekeeper residue (L2026M) (Homo sapiens, UniProt P08922, L2026M, cells depend on it, form not given). Nature of the series: Ba/F3-Ros1 cell proliferation assay, L2026M gatekeeper mutant. The series is classed as cell-based, murine. As to conditions: without IL-3. Summed up:
as §1

The target of series [3] is Ba/F3 cells containing Ros1 with G2032R mutation (Homo sapiens, UniProt P08922, G2032R, cells depend on it, form not given). Nature of the series: Ba/F3-Ros1 cell proliferation assay, G2032R crizotinib-resistance mutant. It is filed as cell-based, murine. Conditions: without IL-3. Here is the method:
Ba/F3-Ros1 Cell Proliferation Assay
This assay was carried out with Ba/F3 cells containing three different versions of Ros1: the wild-type protein, protein with a mutation at the gatekeeper residue (L2026M), and protein with a mutation identified in a tumor from a patient that became resistant to crizotinib (Xalkori®) treatment (G2032R). Compounds were solubilized in 100% DMSO (dimethyl sulfoxide) and sprayed into polystyrene, tissue culture treated 384-well plates. A 50 μl volume of cell culture medium (phenol red free RPMI-1640, 10% FBS (fetal bovine serum), 2 mM L-Glutamine) containing 20000 Ba/F3-Ros1 cells was added to each well and the plates were placed in an incubator at 37° C. and 5% CO2. After 24 hours, 10 μl of Alamar Blue solution (0.5 mM K3Fe(CN)6, 0.5 mM K4Fe(CN)6, 0.15 mM Resazurin and 100 mM Phosphate Buffer) was added to the wells, incubated for 4 hours at 37° C. and 5% CO2 before RFU's (Relative Fluorescence Units) (ex. 540 nm., em. 590 nm.) were measured in a fluorescence plate reader.

The subject of series [4] is Ba/F3 cells containing Ros1 wild-type protein + IL-3. Nature of the series: Ba/F3-Ros1 cell proliferation counter-screen, wild-type protein in the presence of 10 ng/ml murine IL-3. The series is classed as cell-based. Conditions: Mus musculus, BaF3, 24 h, read-out: BaF3-ROS1 + IL3 pIC50 (converted). Summed up:
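Read-out is resazurin-based Alamar Blue fluorescence (RFU, ex 540 nm, em 590 nm), measured 4 h after dye addition. Before that, wild-type Ros1 Ba/F3 cells had been cultured 24 h with compound in the presence of 10 ng/ml murine IL-3.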
For orientation: The purpose of a counterscreen is to sort out artefacts and off-target activity.

Series [5] concerns HCC78 non-small cell lung cancer cells. Kind of series: HCC78 cell proliferation assay. The series is classed as cell-based. As to conditions: Homo sapiens, HCC78, 96 h, read-out: HCC-78 PROL pEC50 (converted). In short, it runs like this:
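HCC78 NSCLC cells (~1000/well) in RPMI-1640 with 10% FBS were treated 24 h after seeding and exposed to compound for 4 days at 37 °C. Viability was read by MTT, with absorbance at 538 nm after DMSO/glycine solubilization.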

Series [6] concerns Ros pY2274 in HCC78 cells. Nature of the series: pROS1 immunofluorescence assay in HCC78 cells. Conditions: Homo sapiens, read-out: HCC78-pRos1 pIC50 (converted). It is filed as cell-based. Summed up:
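HCC78 NSCLC cells treated with compound for 4 h at 37 °C, then fixed and immunostained for ROS1 pY2274 (Alexa Fluor 680, read at 700 nm). Total ROS1 stained in parallel (IRDye800cw, 800 nm) and used to normalize phospho signal.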

Where [7] appears, read: counter-screen, wild-type, 10 ng/ml murine IL-3.
[8] abbreviates: HCC78 cells, 4 hours, Ros pY2274 normalized to total Ros1.

In general, melting point refers to the temperature of the solid-liquid transition.

T1 sequence (P08922 28-2347): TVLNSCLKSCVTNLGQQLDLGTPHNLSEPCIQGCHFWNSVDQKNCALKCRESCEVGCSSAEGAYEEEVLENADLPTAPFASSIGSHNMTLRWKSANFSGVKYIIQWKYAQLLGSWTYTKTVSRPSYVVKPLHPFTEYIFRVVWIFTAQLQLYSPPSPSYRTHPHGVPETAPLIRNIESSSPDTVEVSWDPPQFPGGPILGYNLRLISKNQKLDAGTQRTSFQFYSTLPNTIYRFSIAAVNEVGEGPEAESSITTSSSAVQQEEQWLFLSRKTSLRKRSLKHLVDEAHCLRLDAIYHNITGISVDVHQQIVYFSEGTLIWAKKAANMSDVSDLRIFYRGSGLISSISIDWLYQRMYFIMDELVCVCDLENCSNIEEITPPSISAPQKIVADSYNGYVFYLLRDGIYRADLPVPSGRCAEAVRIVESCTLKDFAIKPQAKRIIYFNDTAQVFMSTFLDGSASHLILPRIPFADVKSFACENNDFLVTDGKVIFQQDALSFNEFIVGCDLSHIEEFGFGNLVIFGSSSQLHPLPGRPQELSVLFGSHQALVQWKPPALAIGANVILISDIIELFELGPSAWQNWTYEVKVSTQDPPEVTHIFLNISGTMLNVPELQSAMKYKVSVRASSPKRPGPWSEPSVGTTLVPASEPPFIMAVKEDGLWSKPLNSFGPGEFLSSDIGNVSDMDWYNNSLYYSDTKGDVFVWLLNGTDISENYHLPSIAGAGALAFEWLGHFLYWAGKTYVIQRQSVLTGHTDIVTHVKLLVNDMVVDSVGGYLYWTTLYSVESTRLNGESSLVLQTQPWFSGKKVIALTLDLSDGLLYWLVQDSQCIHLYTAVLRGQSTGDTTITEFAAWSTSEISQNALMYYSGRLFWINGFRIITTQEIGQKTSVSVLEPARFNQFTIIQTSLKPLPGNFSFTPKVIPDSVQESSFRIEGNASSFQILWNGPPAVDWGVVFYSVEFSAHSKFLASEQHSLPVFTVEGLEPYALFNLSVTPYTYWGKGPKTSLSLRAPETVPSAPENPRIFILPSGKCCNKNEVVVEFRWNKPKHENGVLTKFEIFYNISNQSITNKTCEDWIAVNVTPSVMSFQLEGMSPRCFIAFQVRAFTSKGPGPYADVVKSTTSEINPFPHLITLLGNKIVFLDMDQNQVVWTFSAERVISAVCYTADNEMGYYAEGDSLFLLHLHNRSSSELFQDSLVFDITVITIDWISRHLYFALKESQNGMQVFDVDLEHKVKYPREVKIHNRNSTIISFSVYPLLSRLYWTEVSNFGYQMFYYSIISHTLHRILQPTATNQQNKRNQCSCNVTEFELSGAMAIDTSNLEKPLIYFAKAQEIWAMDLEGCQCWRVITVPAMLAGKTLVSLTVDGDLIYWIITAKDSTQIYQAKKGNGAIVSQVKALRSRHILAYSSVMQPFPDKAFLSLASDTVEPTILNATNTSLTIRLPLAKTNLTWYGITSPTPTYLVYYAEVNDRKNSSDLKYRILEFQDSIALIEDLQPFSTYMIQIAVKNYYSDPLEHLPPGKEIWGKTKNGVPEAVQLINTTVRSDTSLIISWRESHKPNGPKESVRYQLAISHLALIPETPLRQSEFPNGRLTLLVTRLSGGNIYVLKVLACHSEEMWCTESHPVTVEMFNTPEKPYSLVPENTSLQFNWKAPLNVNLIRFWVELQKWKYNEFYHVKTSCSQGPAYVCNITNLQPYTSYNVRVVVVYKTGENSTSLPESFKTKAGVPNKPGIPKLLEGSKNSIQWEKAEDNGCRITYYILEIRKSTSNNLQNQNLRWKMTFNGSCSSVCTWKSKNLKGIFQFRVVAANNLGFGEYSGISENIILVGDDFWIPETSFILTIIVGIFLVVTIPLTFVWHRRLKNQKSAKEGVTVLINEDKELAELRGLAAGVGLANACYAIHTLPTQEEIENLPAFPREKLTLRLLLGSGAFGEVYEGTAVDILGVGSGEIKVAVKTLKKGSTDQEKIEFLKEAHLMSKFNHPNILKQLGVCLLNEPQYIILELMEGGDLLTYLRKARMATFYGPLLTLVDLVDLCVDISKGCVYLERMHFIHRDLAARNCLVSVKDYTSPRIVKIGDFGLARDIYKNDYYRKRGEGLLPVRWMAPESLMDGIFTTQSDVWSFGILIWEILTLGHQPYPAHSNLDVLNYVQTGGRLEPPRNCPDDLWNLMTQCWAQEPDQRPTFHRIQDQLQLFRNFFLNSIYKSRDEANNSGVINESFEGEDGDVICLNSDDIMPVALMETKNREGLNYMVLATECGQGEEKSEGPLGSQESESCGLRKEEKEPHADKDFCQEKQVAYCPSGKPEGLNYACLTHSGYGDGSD
T2 sequence (P08922 whole entry, stated change not applied): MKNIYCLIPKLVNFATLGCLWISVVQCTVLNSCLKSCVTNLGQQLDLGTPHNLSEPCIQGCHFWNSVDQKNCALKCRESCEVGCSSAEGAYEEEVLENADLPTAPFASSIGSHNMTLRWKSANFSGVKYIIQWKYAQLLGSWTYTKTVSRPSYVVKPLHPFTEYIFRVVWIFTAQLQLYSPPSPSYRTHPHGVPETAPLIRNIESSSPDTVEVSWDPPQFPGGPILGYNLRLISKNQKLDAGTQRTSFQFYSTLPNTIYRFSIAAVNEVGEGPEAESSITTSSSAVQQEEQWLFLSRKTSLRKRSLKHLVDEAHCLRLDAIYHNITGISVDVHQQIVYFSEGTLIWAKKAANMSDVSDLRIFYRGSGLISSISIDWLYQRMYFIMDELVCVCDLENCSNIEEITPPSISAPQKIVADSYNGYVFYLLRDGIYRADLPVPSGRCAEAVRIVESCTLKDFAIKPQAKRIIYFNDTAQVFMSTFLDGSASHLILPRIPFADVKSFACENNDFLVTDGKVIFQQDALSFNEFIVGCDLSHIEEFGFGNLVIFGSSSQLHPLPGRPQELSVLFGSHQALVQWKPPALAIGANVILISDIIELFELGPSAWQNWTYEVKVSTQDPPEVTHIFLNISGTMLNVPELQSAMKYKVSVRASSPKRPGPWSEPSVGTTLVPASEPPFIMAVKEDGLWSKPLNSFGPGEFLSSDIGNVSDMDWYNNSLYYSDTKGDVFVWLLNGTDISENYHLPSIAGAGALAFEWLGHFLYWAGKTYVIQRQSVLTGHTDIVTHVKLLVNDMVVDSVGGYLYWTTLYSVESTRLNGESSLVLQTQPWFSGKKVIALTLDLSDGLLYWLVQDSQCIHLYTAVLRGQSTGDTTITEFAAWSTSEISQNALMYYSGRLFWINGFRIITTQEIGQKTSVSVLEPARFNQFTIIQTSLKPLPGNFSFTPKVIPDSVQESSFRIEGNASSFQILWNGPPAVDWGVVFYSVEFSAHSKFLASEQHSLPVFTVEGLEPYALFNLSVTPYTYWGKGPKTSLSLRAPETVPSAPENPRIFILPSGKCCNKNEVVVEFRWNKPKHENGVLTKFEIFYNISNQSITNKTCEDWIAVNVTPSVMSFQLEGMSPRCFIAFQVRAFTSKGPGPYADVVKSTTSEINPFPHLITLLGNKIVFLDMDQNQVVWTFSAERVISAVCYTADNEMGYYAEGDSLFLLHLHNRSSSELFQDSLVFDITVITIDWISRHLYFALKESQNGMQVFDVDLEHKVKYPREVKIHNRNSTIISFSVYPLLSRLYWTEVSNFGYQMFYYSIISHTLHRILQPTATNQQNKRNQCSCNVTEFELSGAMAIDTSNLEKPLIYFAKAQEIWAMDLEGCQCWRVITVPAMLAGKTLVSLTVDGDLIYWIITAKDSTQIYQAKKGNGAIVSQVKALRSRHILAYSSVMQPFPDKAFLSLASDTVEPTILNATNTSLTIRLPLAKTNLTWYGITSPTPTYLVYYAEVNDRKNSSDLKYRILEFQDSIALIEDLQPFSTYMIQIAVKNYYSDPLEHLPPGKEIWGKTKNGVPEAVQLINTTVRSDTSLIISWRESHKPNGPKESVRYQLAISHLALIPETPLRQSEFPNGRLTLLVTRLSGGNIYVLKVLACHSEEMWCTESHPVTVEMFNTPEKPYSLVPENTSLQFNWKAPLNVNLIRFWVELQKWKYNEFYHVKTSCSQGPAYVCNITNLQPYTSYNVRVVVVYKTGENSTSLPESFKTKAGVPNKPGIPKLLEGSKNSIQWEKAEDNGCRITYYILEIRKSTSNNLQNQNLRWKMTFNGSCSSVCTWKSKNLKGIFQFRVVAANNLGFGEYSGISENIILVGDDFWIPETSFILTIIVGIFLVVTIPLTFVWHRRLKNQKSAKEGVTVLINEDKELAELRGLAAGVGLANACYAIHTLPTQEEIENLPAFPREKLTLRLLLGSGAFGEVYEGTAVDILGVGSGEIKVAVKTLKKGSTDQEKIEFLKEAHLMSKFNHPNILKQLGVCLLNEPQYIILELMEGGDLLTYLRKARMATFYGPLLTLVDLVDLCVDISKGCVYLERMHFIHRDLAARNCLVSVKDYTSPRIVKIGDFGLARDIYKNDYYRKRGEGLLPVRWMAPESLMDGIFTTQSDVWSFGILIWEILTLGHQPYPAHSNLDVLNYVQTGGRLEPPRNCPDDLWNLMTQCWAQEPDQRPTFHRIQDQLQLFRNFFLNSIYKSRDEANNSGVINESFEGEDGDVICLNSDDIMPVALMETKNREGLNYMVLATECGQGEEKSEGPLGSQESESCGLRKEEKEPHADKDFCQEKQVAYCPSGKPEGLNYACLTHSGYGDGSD
Chain of Ba/F3 cells containing Ros1 with a mutation at the gatekeeper residue (L2026M) (P08922 whole entry L2026M, form open): as the sequence (P08922 whole entry, stated change not applied) above, with L2026M counted along it
Chain of Ba/F3 cells containing Ros1 with G2032R mutation (P08922 whole entry G2032R, form open): as the sequence (P08922 whole entry, stated change not applied) above, with G2032R counted along it

In turn, `O=C1NCCn2nc(-c3ccncc3)c(-c3ccc(OCc4ccc(C5CC5)cc4)cc3)c21` [Compound 4] gave a melting point of 262 °C. The IC50 at Ros1 enzyme is 39.8 nM. Moreover, in series [1], the “BaF3-ROS1-IL3 pIC50” value is listed as 7.6. Moreover, the “Ba/F3 Ros1 L2026M (-IL-3) pIC50” value in series [2] was determined as 7.4. The “Ba/3 Ros1 G2032R (-IL-3) pIC50” value in series [3] came to 6.8. Besides, the CC50 in series [4] is > 10000 nM. Moreover, the EC50 in series [5] was 200 nM. The IC50 in series [6] (HCC78, 4 h) is 79.4 nM.

Compound `CC(C)c1ccc(COc2ccc(-c3c(-c4ccncc4)nn4c3C(=O)NCC4)c(F)c2)cc1` [Compound 6] displayed a melting point of 271 °C. Also, at Ros1 enzyme, the IC50 was 10 nM. In addition, the “BaF3-ROS1-IL3 pIC50” value in series [1] amounted to 7.9. Also, in series [2], the “Ba/F3 Ros1 L2026M (-IL-3) pIC50” value was found to be 7.7. Also, the “Ba/3 Ros1 G2032R (-IL-3) pIC50” value in series [3] is 7.4. In series [4], the CC50 is > 10000 nM. Further, the EC50 in series [5] was 63.1 nM. Also, the IC50 in series [6] (HCC78, 4 h) was 15.8 nM.

`CC(C)c1ccc(COc2ccc(-c3c(-c4ccnc(N)c4)nn4c3C(=O)NCC4)cc2)cc1` [Compound 7] gave a melting point of 267 °C. For the same compound, the IC50 on Ros1 enzyme was 39.8 nM. For the same compound, the “BaF3-ROS1-IL3 pIC50” value in series [1] is listed as 7.4. Further, the “Ba/F3 Ros1 L2026M (-IL-3) pIC50” value in series [2] stood at 7.4. In addition, the “Ba/3 Ros1 G2032R (-IL-3) pIC50” value in series [3] stood at 6.8. Further, in series [4], the CC50 is > 10000 nM. Moreover, the EC50 in series [5] was 251 nM. The IC50 in series [6] (HCC78, 4 h) was 100 nM.

`COc1ccc(COc2ccc(-c3c(-c4ccncc4)nn4c3C(=O)NCC4)cc2)cc1` [Compound 112] came in with a melting point of 260 °C. Moreover, the IC50 at Ros1 enzyme is 158 nM. In addition, the “BaF3-ROS1-IL3 pIC50” value in series [1] worked out at 6.8. For the same compound, the “Ba/3 Ros1 G2032R (-IL-3) pIC50” value in series [3] is 5.8. Besides, the CC50 in series [4] (setting [7]) is > 10000 nM. Further, the EC50 in series [5] (HCC78 cells, 4 days, MTT) was 1000 nM. Moreover, the IC50 in series [6] (setting [8]) was 316 nM.

As to `CC(C)c1ccc(COc2ccc(-c3c(-c4ccncn4)nn4c3C(=O)NCC4)cc2)cc1` [Compound 158], the IC50 on Ros1 enzyme was 50.1 nM; in series [6] (HCC78, 4 h), 126 nM. Also, the “BaF3-ROS1-IL3 pIC50” value in series [1] is reported as 7.4. In series [2], the “Ba/F3 Ros1 L2026M (-IL-3) pIC50” value is listed as 7.4. Further, the “Ba/3 Ros1 G2032R (-IL-3) pIC50” value in series [3] is on record as 6.5. In addition, the CC50 in series [4] was > 10000 nM. The EC50 in series [5] was 316 nM.

The compound `CC(C)c1ccc(COc2ccc(-c3c(-c4ccncn4)nn4c3C(=O)N(CCO)CC4)cc2)cc1` [Compound 159] gave a melting point of 160 °C. The IC50 at Ros1 enzyme was 50.1 nM. In series [1], the “BaF3-ROS1-IL3 pIC50” value is 7.3. Besides, the “Ba/F3 Ros1 L2026M (-IL-3) pIC50” value in series [2] stood at 7.2. Besides, the “Ba/3 Ros1 G2032R (-IL-3) pIC50” value in series [3] is reported as 6.4. In addition, the CC50 in series [4] was > 10000 nM. Besides, in series [5], the EC50 was 63.1 nM.

Compound `c1cc(-c2nn3c(c2-c2ccc(OCc4ccc(C5CC5)cc4)cc2)CNC2(CC2)C3)ccn1` [Compound 171] had a melting point of 152 °C. On Ros1 enzyme, the IC50 was 398 nM. Also, the “BaF3-ROS1-IL3 pIC50” value in series [1] is 6.2. The “Ba/3 Ros1 G2032R (-IL-3) pIC50” value in series [3] was found to be 6.0. The CC50 in series [4] (setting [7]) was > 10000 nM. Also, in series [5] (HCC78 cells, 4 days, MTT), the EC50 is 1580 nM. In addition, the IC50 in series [6] (setting [8]) was 501 nM.

`c1cc(-c2nn3c(c2-c2ccc(OCc4ccc(C5CC5)cc4)cc2)CNCC3)ccn1` [Compound 172]: the IC50 at Ros1 enzyme was 631 nM; in series [6] (setting [8]) it was 316 nM. Moreover, the “BaF3-ROS1-IL3 pIC50” value in series [1] stood at 6.4. Also, in series [2], the “Ba/F3 Ros1 L2026M (-IL-3) pIC50” value is listed as 6.3. Also, the “Ba/3 Ros1 G2032R (-IL-3) pIC50” value in series [3] worked out at 5.2. Further, the CC50 in series [4] (setting [7]) was > 10000 nM. The EC50 in series [5] (HCC78 cells, 4 days, MTT) is 3980 nM.

As for `O=C1NC2(CNC2)Cn2nc(-c3ccncc3)c(-c3ccc(OCc4ccc(C5CC5)cc4)cc3)c21` [Compound 183], the melting point was 173 °C. Also, the IC50 at Ros1 enzyme is 200 nM. Further, the “BaF3-ROS1-IL3 pIC50” value in series [1] was determined as 6.0. The “Ba/3 Ros1 G2032R (-IL-3) pIC50” value in series [3] is listed as 5.6. Also, in series [4] (setting [7]), the CC50 was > 10000 nM. The EC50 in series [5] (HCC78 cells, 4 days, MTT) was 1580 nM. Besides, the IC50 in series [6] (setting [8]) is 398 nM.
